Assay results as given in patent US6914045B2, “Glycopeptide antibiotics” (Wyeth Holdings Corporation, priority 2001, dated 2005).
Converted amounts (≈) assume the structure as drawn.

Experiments:
Experiment in all cases: in vitro antibacterial evaluation, MIC by broth dilution
Assay type in all cases: cell-based
Enterococcus sp. = details: broth dilution, 18 hours at 35° C.
Method in brief: (§1)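 Following National Committee for Clinical Laboratory Standards recommendations (M7-A2), susceptibility was measured by dilution in Muller-Hinton II […]. Bacteria were seeded at 5×10^5 CFU/mL against compound concentrations from 64 down to 0.06 μg/mL.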

Escherichia coli = details: 18 hours at 35° C.
Method in brief: as §1

Staphylococcus sp. = details: broth dilution, 18 hours at 35° C.
Method in brief: as §1

Streptococcus sp. = details: broth dilution, 18 hours at 35° C.
Method in brief: as §1

MIC Enterococcus avium (GC 4558) (Enterococcus sp.; Enterococcus avium (GC 4558)): 2 µg/mL (≈ 1.39 µM)
MIC Enterococcus faecalis (ATCC 29212) (Enterococcus sp.; Enterococcus faecalis (ATCC 29212)): 2 µg/mL (≈ 1.39 µM)
MIC Enterococcus faecalis (GC 2242) (Enterococcus sp.; Enterococcus faecalis (GC 2242)): 4 µg/mL (≈ 2.77 µM)
MIC Enterococcus faecalis (GC 2691) (Enterococcus sp.; Enterococcus faecalis (GC 2691)): 4 µg/mL (≈ 2.77 µM)
MIC Enterococcus faecalis (GC 3059) (Enterococcus sp.; Enterococcus faecalis (GC 3059)): 2 µg/mL (≈ 1.39 µM)
MIC Enterococcus faecalis (GC 4552) (Enterococcus sp.; Enterococcus faecalis (GC 4552)): 4 µg/mL (≈ 2.77 µM)
MIC Enterococcus faecalis (GC 4553) (Enterococcus sp.; Enterococcus faecalis (GC 4553)): 4 µg/mL (≈ 2.77 µM)
MIC Enterococcus faecalis (GC 4554) (Enterococcus sp.; Enterococcus faecalis (GC 4554)): 4 µg/mL (≈ 2.77 µM)
MIC Enterococcus faecalis (GC 6189) (Enterococcus sp.; Enterococcus faecalis (GC 6189)): 2 µg/mL (≈ 1.39 µM)
MIC Enterococcus faecium (GC 2243) (Enterococcus sp.; Enterococcus faecium (GC 2243)): 4 µg/mL (≈ 2.77 µM)
MIC Enterococcus faecium (GC 4556) (Enterococcus sp.; Enterococcus faecium (GC 4556)): 4 µg/mL (≈ 2.77 µM)
MIC Enterococcus faecium (GC 4557) (Enterococcus sp.; Enterococcus faecium (GC 4557)): 4 µg/mL (≈ 2.77 µM)
MIC Enterococcus faecalis (ATCC 29212) (Enterococcus sp.; strain ATCC 29212): 2 µg/mL (≈ 1.39 µM)
MIC Enterococcus faecalis (GC 2242) (Enterococcus sp.; strain GC 2242): 4 µg/mL (≈ 2.77 µM)
MIC Enterococcus faecium (GC 2243) (Enterococcus sp.; strain GC 2243): 4 µg/mL (≈ 2.77 µM)
MIC Enterococcus faecalis (GC 2691) (Enterococcus sp.; strain GC 2691): 4 µg/mL (≈ 2.77 µM)
MIC Enterococcus faecalis (GC 3059) (Enterococcus sp.; strain GC 3059): 2 µg/mL (≈ 1.39 µM)
MIC Enterococcus faecalis (GC 4552) (Enterococcus sp.; strain GC 4552): 4 µg/mL (≈ 2.77 µM)
MIC Enterococcus faecalis (GC 4553) (Enterococcus sp.; strain GC 4553): 4 µg/mL (≈ 2.77 µM)
MIC Enterococcus faecalis (GC 4554) (Enterococcus sp.; strain GC 4554): 4 µg/mL (≈ 2.77 µM)
MIC Enterococcus faecium (GC 4556) (Enterococcus sp.; strain GC 4556): 4 µg/mL (≈ 2.77 µM)
MIC Enterococcus faecium (GC 4557) (Enterococcus sp.; strain GC 4557): 4 µg/mL (≈ 2.77 µM)
MIC Enterococcus avium (GC 4558) (Enterococcus sp.; strain GC 4558): 2 µg/mL (≈ 1.39 µM)
MIC Enterococcus faecalis (GC 6189) (Enterococcus sp.; strain GC 6189): 2 µg/mL (≈ 1.39 µM)
MIC Escherichia coli (ATCC 25922) (Escherichia coli; strain ATCC 25922): 64 µg/mL (≈ 44.4 µM)
MIC Escherichia coli (GC 4559) (Escherichia coli; strain GC 4559): 64 µg/mL (≈ 44.4 µM)
MIC Escherichia coli (GC 4560) (Escherichia coli; strain GC 4560): 4 µg/mL (≈ 2.77 µM)
MIC Staphylococcus aureus (ATCC 29213) (Staphylococcus sp.): 2 µg/mL (≈ 1.39 µM)
MIC Staphylococcus aureus (GC 1131) (Staphylococcus sp.): 4 µg/mL (≈ 2.77 µM)
MIC Staphylococcus aureus (GC 3051) (Staphylococcus sp.): 2 µg/mL (≈ 1.39 µM)
MIC Staphylococcus aureus (GC 3053) (Staphylococcus sp.): 2 µg/mL (≈ 1.39 µM)
MIC Staphylococcus aureus (GC 4541) (Staphylococcus sp.): 4 µg/mL (≈ 2.77 µM)
MIC Staphylococcus aureus (GC 4542) (Staphylococcus sp.): 2 µg/mL (≈ 1.39 µM)
MIC Staphylococcus aureus (GC 4544) (Staphylococcus sp.): 4 µg/mL (≈ 2.77 µM)
MIC Staphylococcus aureus (GC 4545) (Staphylococcus sp.): 2 µg/mL (≈ 1.39 µM)
MIC Staphylococcus aureus (GC 1131) (Staphylococcus sp.; inoculum 5×10^5 CFU/mL, strain GC 1131): 4 µg/mL (≈ 2.77 µM)
MIC Staphylococcus aureus (ATCC 29213) (Staphylococcus sp.; strain ATCC 29213): 2 µg/mL (≈ 1.39 µM)
MIC Staphylococcus aureus (GC 3051) (Staphylococcus sp.; strain GC 3051): 2 µg/mL (≈ 1.39 µM)
MIC Staphylococcus aureus (GC 3053) (Staphylococcus sp.; strain GC 3053): 2 µg/mL (≈ 1.39 µM)
MIC Staphylococcus aureus (GC 4541) (Staphylococcus sp.; strain GC 4541): 4 µg/mL (≈ 2.77 µM)
MIC Staphylococcus aureus (GC 4542) (Staphylococcus sp.; strain GC 4542): 2 µg/mL (≈ 1.39 µM)
MIC Staphylococcus aureus-SMITH (GC 4543) (Staphylococcus sp.; strain GC 4543): 2 µg/mL (≈ 1.39 µM)
MIC Staphylococcus aureus (GC 4544) (Staphylococcus sp.; strain GC 4544): 4 µg/mL (≈ 2.77 µM)
MIC Staphylococcus aureus (GC 4545) (Staphylococcus sp.; strain GC 4545): 2 µg/mL (≈ 1.39 µM)
MIC Coagulase Negative Staphylococcus (GC 4547) (Staphylococcus sp.; strain GC 4547): 4 µg/mL (≈ 2.77 µM)
MIC Coagulase Negative Staphylococcus (GC 4548) (Staphylococcus sp.; strain GC 4548): 2 µg/mL (≈ 1.39 µM)
MIC Coagulase Negative Staphylococcus (GC 4549) (Staphylococcus sp.; strain GC 4549): 1 µg/mL (≈ 0.694 µM)
MIC Coagulase Negative Staphylococcus (GC 4551) (Staphylococcus sp.; strain GC 4551): 2 µg/mL (≈ 1.39 µM)
MIC Staphylococcus aureus-SMITH (GC 4543) (Staphylococcus sp.; strain SMITH GC 4543): 2 µg/mL (≈ 1.39 µM)
MIC Streptococcus agalactiae (GC 4564) (Streptococcus sp.; Streptococcus agalactiae (GC 4564)): <0.12 µg/mL
MIC Streptococcus pneumoniae (ATCC 6301) (Streptococcus sp.; Streptococcus pneumoniae (ATCC 6301)): <0.12 µg/mL
MIC Streptococcus pneumoniae (GC 1894) (Streptococcus sp.; Streptococcus pneumoniae (GC 1894)): <0.12 µg/mL
MIC Streptococcus pneumoniae (GC 4565) (Streptococcus sp.; Streptococcus pneumoniae (GC 4565)): <0.12 µg/mL
MIC Streptococcus pyogenes (GC 4563) (Streptococcus sp.; Streptococcus pyogenes (GC 4563)): 0.25 µg/mL (≈ 0.173 µM)
MIC Streptococcus pneumoniae (ATCC 6301) (Streptococcus sp.; strain ATCC 6301): <0.12 µg/mL
MIC Streptococcus pneumoniae (GC 1894) (Streptococcus sp.; strain GC 1894): <0.12 µg/mL
MIC Streptococcus pyogenes (GC 4563) (Streptococcus sp.; strain GC 4563): 0.25 µg/mL (≈ 0.173 µM)
MIC Streptococcus agalactiae (GC 4564) (Streptococcus sp.; strain GC 4564): <0.12 µg/mL
MIC Streptococcus pneumoniae (GC 4565) (Streptococcus sp.; strain GC 4565): <0.12 µg/mL
SMILES: CC(c1ccccc1)C1NC(=O)CNC(=O)C(CO)NC(=O)C(C(O)C2CNC(=N)N2C2OC(CO)C(O)C(O)C2O)NC(=O)C(C(O)C2CNC(=N)N2)NC(=O)C(Cc2ccc(OC3OC(CO)C(OC4OC5COC(C67CC8CC(CC(C8)C6)C7)OC5C(O)C4O)C(O)C3O)cc2)NC1=O (stereo not drawn) [Example 127]
MIC Staphylococcus haemolyticus (GC 4546) (Staphylococcus sp.; strain GC 4546): 2 µg/mL (≈ 1.39 µM)
